Patent publication US11446312B2, “Compounds that modulate von Willebrand factor levels and their use in the treatment of blood disorders” (SOCIETE DES PRODUITS NESTLE S.A., priority 2018, dated 2022)

Tested on: vWF
Experiment: Cultured Human Endothelial Cell vWF Expression Assay
Assay type: cell-based
Settings: human iPSC-derived endothelial cells, 24h treatment, immunofluorescence intensity, vs DMSO control
Description: Human induced-pluripotent stem cell derived endothelial cells and accompanying growth media were purchased from Cellular Dynamics International. ECs were cultured according to the manufacturer's protocol (Cellular Dynamics International). ECs were plated at a density of 10′000-15′000 cells/cm^2 in culture vessels which have been coated with fibronectin (Invitrogen) and maintained in a low oxygen incubator (37° C., 5% CO2, 5% O2). The EC maintenance media was exchanged every other day and comprised of VascuLife Basal medium +VascuLife VEGF medium complete kit (Lifeline Cell Technologies). For all experiments ECs of passage 0 or 1 were used. The Celastrol used was a synthetic organic chemical manufactured in the United States and purchased from Novus (catalog reference number NBP2-29362). vWF primary antibody was obtained from Abcam (ab6994), tubulin primary antibody was obtained from Abcam (ab7291), and the secondary antibodies were Alexa fluor (anti-mouse and anti-rabbit) obtained from Thermo Fisher Scientific.
Endothelial cells were plated into 96-well glass-bottom plates at a density of 10,000 cells per well. […] Quantification of the fluorescence intensity (which is indicative of protein levels) was performed using the MetaXpress software. […]
The figure (FIG. 1) depicts the quantification of the data for human endothelial cells treated with celastrol as described above. […]

Structure (SMILES): CC1=C(O)C(=O)C=C2C1=CC=C1[C@@]2(C)CC[C@@]2(C)[C@@H]3C[C@](C)(C(=O)O)CC[C@]3(C)CC[C@]12C [Celastrol, 10-Hydroxy-2,4a,6a,9,12b,14a-hexamethyl-11-oxo-1,2,3,4,4a,5,6,6a,11,12b,13,14,14a,14b-tetradecahydro-picene-2-carboxylic acid]
- vWF protein expression (normalized by the expression of tubulin) (1 μM celastrol): significantly (***p<0.001) reduces vWF protein expression
- vWF protein expression (normalized by the expression of tubulin) (10 μM celastrol): significantly (***p<0.001) reduces vWF protein expression
